Laboratory results: patent publication US20110142842A1, “POLYPEPTIDES” (Medinnova AS, priority 2007, published 2011)
Where “and” joins values, the source holds several entries; their conditions need not be identical. Equal values may be shown once. Read-outs that look alike come from different tables or passages of the source.

How the values were obtained:
[1] = test system: autologous responder cells (monocyte-depleted PBMC) from HLA-A*0201-negative donors; assay: Induction of pentamer positive CD8+ T cells by peptide-pulsed HLA-A*0201-transfected moDC (Example 8); assay type: cell-based, human; settings: for Day 12 % pent+/CD8+: day 12 of co-culture; for Day 19 % pent+/CD8+: day 19 of co-culture, after restimulation; for Day 12 Donors / Day 19 Donors: donors with positive response / donors tested
Protocol: MoDC transfected with HLA-A*0201 mRNA were harvested 18 hours after transfection and resuspended in 1-2 ml of serum-free DC-medium containing 50 μg/ml peptide, such as MART-1 or peptide #19. The cells were incubated at 37° C., 5% CO2 for 4 hours, then washed once in serum-free RPMI.
Stimulator and responder cells were seeded at a stimulator to responder (S:R) ratio of 1:10, with 3.0×10^6 responders per well in serum-free DC medium containing 10 ng/ml IL-7 (PeproTech EC Ltd.), 50 pg/ml IL-12 (PeproTech EC Ltd.), and PPD at 1 μg/ml.
On day 12 the responder cells were harvested and analyzed for the presence of pentamer positive cells. The cells were either sorted or restimulated.
Restimulation was done with autologous EBV-LCL transfected with HLA-A*0201 mRNA 12-24 hours prior to stimulation, harvested and resuspended in 1-2 ml of serum-free X-Vivo 20 (Cambrex) containing the same peptide as added on day 0 at 20 μg/ml, and incubated for 4 hours at 37° C., 5% CO2. Following incubation, the EBV-LCL were washed once in serum-free RPMI.
From day 12 of co-culture with stimulator cells, the responders were harvested, counted and analyzed for the presence of pentamer positive cells weekly. The responder cells were either restimulated, as described above, or the pentamer positive cells were sorted and expanded as described below.
Monocyte-derived dendritic cells (moDC) from HLA-A*0201-negative donors were transfected with HLA-A*0201 mRNA after maturation. 18-24 hours post-transfection the cells were pulsed with the peptides indicated in Table 2 for four hours, before co-culturing them with autologous responder cells (monocyte-depleted PBMC). On day 12 and day 19 and in some cases at day 26 of co-culture, the cells were harvested, stained with relevant peptide-MHC-pentamer and analyzed by flow cytometry. The percentage of pentamer positive cells was calculated by dividing the number of pentamer positive cells by the number of CD8+ cells. On day 12 and day 19, the cells were restimulated with autologous EBV-cells that were transfected with HLA-A*0201 mRNA and loaded for four hours with the relevant peptides indicated in Table 2.

[2] = test system: CD8+ T cells from HLA-A*0201 negative donors; assay: Induction of allo-restricted pentamer+ T cells by peptide-pulsed A2-moDC (Example 9); assay type: cell-based, human; settings: three donors respectively, 19 days of culture
Protocol: Mature moDCs were harvested 18 hours after transfection with HLA-A*0201 mRNA, pulsed with 50 μg/ml MART-1 peptide or CD339-17 peptide for 4 hours, washed and co-cultured with thawed, non-adherent cells (see above) at a ratio of 1:10 in CellGro DC medium in the presence of 10 ng/ml IL-7 (PeproTech EC Ltd.) and 50 pg/ml IL-12 (PeproTech EC Ltd.), with the addition of 10 ng/ml IL-7 on day 7. Cells were harvested day 12 and analyzed for the presence of pentamer^+ cells. The co-cultures stimulated with the CD339-17 peptide were re-stimulated on day 12 with HLA-A*0201 transfected autologous EBV-LCL for an additional 7 days before harvest.
(§1) Co-cultured cells were harvested and stained with A2/MART-1 pentamer or A2/CD33 pentamer, fluorotag and anti-CD8 according to the manufacturers' instructions. Sorting was performed by flow cytometry (FACS Aria Cell sorter, BD Biosciences, San Jose, Calif.) or by magnetic beads to a purity of >98%. Pentamer^+ cells labelled with fluorotag conjugated to PE were isolated using MACS Anti-PE MicroBeads (Miltenyi Biotec, Bergisch Gladbach, Germany) followed by separation over two subsequent MACS MS Columns (Miltenyi Biotec).

[3] = biological target: HLA-A*0201 (Homo sapiens, UniProt P04439, D140Y/D185E/D98H/E176V/E277Q/G131W/G231S/I119V/I121R/I166T/I218V/L300P/L318F/N151K/N90K/P208A/P217A/Q86G/Q94H/R138H/R169H/T345S); assay: REVEAL MHC molecule binding assay (ProImmune)
[4] = test system: myelo-monocytic leukemia cell line THP-1; assay: IFN-γ production and CD107a/b mobilization, peptide-loaded targets; assay type: cell-based, human; settings: THP-1 loaded with peptide and washed, p=0.016, n=4
[5] = test system: CD8+ T cells from HLA-A*0201 negative donors; assay: Induction of A2/CD20 pentamer+ T cells by HLA-A*0201-transfected peptide-pulsed moDC (Example 10); assay type: cell-based, human
Protocol: Mature moDCs were harvested 18 hours after transfection with HLA-A*0201 mRNA (HLA-A*0201 negative donors), or left untransfected (HLA-A*0201 positive donors), pulsed with 50 μg/ml peptide for 4 hours, irradiated (25Gy), washed and co-cultured with thawed, autologous, non-adherent cells at a ratio of 1:10 in CeliGro DC medium in the presence of 10 ng/ml IL-7 (PeproTech EC Ltd.), 50 pg/ml IL-12 (PeproTech EC Ltd.) and 1 μg/ml purified protein derivative-1 (gift from Prof. L. Sollid's lab, Rikshospitalet, Oslo) with the addition of 10 ng/ml IL-7 on day 7. Cells were analyzed for the presence of pentamer^+ cells, harvested and re-stimulated on day 12 with HLA-A*0201-transfected, peptide-pulsed autologous EBV-LCL. Cells were co-cultured in X-vivo 20 (Lonza, Verviers, Belgium) with 5% pooled human serum, 10 U/ml IL-2 (R&D systems, Minneapolis, Minn.) was added on day 14 and the cells harvested for cell sorting day 19.
as §1, with “Harvested” for “Co-cultured”, “were” for “were harvested and”, “A2/CD20” for “A2/MART-1 pentamer or A2/CD33”, “anti-PE” for “Anti-PE”

[6] = day 26 per footnote c, printed in Day 19 column

| Substance | Day 12 % pent+/CD8+ [1] [%] | Day 19 % pent+/CD8+ [1] | Day 12 Donors [1] | Day 19 Donors [1] | other results |
| --- | --- | --- | --- | --- | --- |
| ALAVISFLL (homo sapiens) [Peptide 114, from CD7] | 0 | 0% | 0/2 | 0/2 |  |
| ALPAALAVI (homo sapiens) [Peptide 127, from CD7] | 0 | 0.04% | 0/2 | 1/2 |  |
| ALYDKTKRI (homo sapiens) [Peptide 115] | 0 | 0% | 0/2 | 0/2 |  |
| CD339-17: peptide derived from the CD33 antigen, amino acid sequence 9-17, HLA-A*0201-binding candidate (LLWAGALAM; UniProt P20138 9-17, looked up, fragment) |  |  |  |  | frequencies of pentamer+ cells [2]: 0.13% and 0.32% and 0.55% |
| FLDCQIHRV (homo sapiens) [Peptide 7, from CD127] | 0 | 0% | 0/2 | 0/2 |  |
| FLLLTISLL (homo sapiens) [Peptide 88, from CD52] | 0 | 0.08% and 0% | 0/2 and 0/3 | 2/3 and 0/2 |  |
| FLYGVILTV (homo sapiens) [Peptide 131] |  |  |  |  | % Pass/fail control [3]: 257.0% |
| FVANAIIHL (homo sapiens) [Peptide 111, from CD52] | 0 | 0% | 0/2 | 0/2 |  |
| ILFAFVSSV (homo sapiens) [Peptide 25, from FLT3] | 0 | 0% | 1/2 | 0/2 |  |
| KIVEWDWKI (homo sapiens) [Peptide 109, from CD48] | 0.03 | 0.05% | 1/2 | 1/2 |  |
| KLGGDLLRA (homo sapiens) [Peptide 129, from CD18] | 0 | 0% | 0/2 | 0/2 |  |
| KLMSPKLYV (homo sapiens) [Peptide 55, from CD19] | 0.03 | 0.05% | 1/2 | 1/2 |  |
| LIQPFMFRL (homo sapiens) [Peptide 84, from MPO] | 0 | 0% | 0/5 | 0/4 |  |
| LLFLTPMEV (homo sapiens) [Peptide 108, from CD19] | 0.03 | 0.09% | 1/2 | 1/2 |  |
| LLLPLLLAL (homo sapiens) [Peptide 28, from CD7] | 0.01 | 0.19% | 1/2 | 1/2 |  |
| LLLTISLLV (homo sapiens) [Peptide 81, from CD52] | 0 | 0.03% | 0/2 | 1/2 |  |
| LLQRPGLQL (homo sapiens) [Peptide 126, from CD64] | 0.01 | 0.06% | 1/2 | 1/2 |  |
| LLWAGALAM (homo sapiens) [Peptide 86, from CD33] | 0.14 | 0.35% | 2/4 | 4/6 |  |
| LMGTLIAKV (homo sapiens) [Peptide 83, from HA-1] | 0 | 0% | 0/2 | 0/2 |  |
| LVAPRFLEV (homo sapiens) [Peptide 85, from CD50] | 0.13 | 0.30% | 1/4 | 2/5 |  |
| RLYQFLLDL (homo sapiens) [Peptide 66, from PU.1] | 0 | 0.03% | 0/2 | 1/2 |  |
| SLFLGILSV (homo sapiens) [Peptide 19, from CD20] |  |  |  |  | peptide concentration at which increase in frequency of activated T cells reached statistical significance [4]: 100 nM; donors with positive cells ([5]; day 12): 5 of 6; median frequency of pentamer positive cells of CD8+ T cells ([5]; day 12): 0.19%; range of frequency of pentamer positive cells of CD8+ T cells ([5]; day 12): 0-0.31%; donors with pentamer positive cells ([5]; day 19): 6/6; median frequency of pentamer positive cells of CD8+ T cells ([5]; day 19, after re-stimulation): 0.57%; range of frequency of pentamer positive cells of CD8+ T cells ([5]; day 19, after re-stimulation): 0.12-2.79% |
| SLWRRPFNV (homo sapiens) [Peptide 22, from MPO] | 0 | 0.09% | 0/2 | 1/2 |  |
| SMFHVTLKI (homo sapiens) [Peptide 128, from CLL-1] |  |  |  |  | % pent+/CD8+ (results d26) [1, 6]: 0.08%; Donors (results d26) [1, 6]: 1/3 |
| SMLDDLRNV (homo sapiens) [Peptide 24, from CD18] | 0 | 0.05% | 0/2 | 1/2 |  |
| SVDPRIANV [139] (SLDPRIANV; homo sapiens) [Peptide 139, modified peptide, MPO] |  |  |  |  | % Pass/fail control ([3]; level of binding relative to pass/fail control binder designated 100%): 231.5% |
| VLWHWLLRT (homo sapiens) [Peptide 105, from CD19] | 0 | 0.19% | 0/2 | 4/6 |  |
| YLGYTVTWL (homo sapiens) [Peptide 93, from CD11a] | 0.02 | 0.06% | 1/2 | 2/2 |  |
| YLHVALDLL (homo sapiens) [Peptide 107, from MPO] | 0 | 0.01% | 0/2 | 1/2 |  |
